# Source: patent US20170196987A1, “METHODS FOR TREATING MULTIPLE SCLEROSIS” (MedWell Laboratories Ltd., priority 2014, published 2017)
# What was measured:
# [1] = test system: Experimental Autoimmune Encephalomyelitis (EAE) mice; assay: Efficacy of conjugate MW001 in MOG 35-55 induced EAE (model of multiple sclerosis), Example 1; type: in vivo, female C57B1 mice
# Procedure: Disease was induced in female C57B1 mice (6-8 weeks old; Harlan). Myelin Oligodendrocyte Glycoprotein (MOG) 35-55 was dissolved in saline (3 mg/ml) and emulsified (1:1) with Complete Freund's Adjuvant (CFA) (gibco; containing 5 mg of killed mycobacterium tuberculosis (MT). 200 μl of the emulsion (containing […] of MOG) were injected into the right flank of each mouse, wherein and each mouse received a 250 ng supplement of pertussis toxin (PT, List) by intraperitoneal injection. Another 250 ng of PT were injected into the right flank of each mouse 24 hours later. The mice were observed daily from the 9th day post-EAE and the clinical signs were scored as described in Table 1 below:
# The MW-001 conjugate was dissolved in ethanol (60 mg/ml) and administered by intraperitoneal injection, at a dose of 50 mg/kg (10% stock in saline) twice a day, once at 9 am and once at […]. Each dose was administered in a volume of 0.2ml/mouse (˜20 g). One group of animals was treated starting at day 0 (relating to the first day on which the induction of the disease started) and the other starting at day 10, when clinical signs first appeared. […]
# Calculation of the incidence of disease: The number of sick animals in each group was summed and percentage of sick animals in each group was calculated.
# Calculation of the mean maximal score (MMS): The maximal scores of each of the 10 mice in the group was summed and the mean maximal score of each group was calculated as follows:Σmaximal score of each mouse/number of mice in the group.
# Calculation of the group mean score (GMS):The scores of each of the 10 mice in the group was summed and the mean score per day calculated. The group mean score was calculated as follows: Σtotal score of each mouse per day/number of mice in the group.
# Mean maximal score (MMS): defined as the disease severity; scored on a scale of 0-5 with graduations of 0.5 for intermediate clinical signs. The score is described in table-1
# [2] = test system: Experimental Autoimmune Encephalomyelitis (EAE) mice; assay: Efficacy of oral and ip MWL-001, MP and their combination in EAE (model of brain inflammation, MS), Example 2; type: in vivo, female C57Bl mice; conditions: for Inhibition of the clinical signs of the disease: day 0 to day 15
# Procedure: Induction of EAE: Disease was induced in female C57Bl mice (6-8 weeks old; Harlan). Myelin Oligodendrocyte Glycoprotein (MOG 35-55) (Hadassah ein karem) was dissolved in saline (3 mg/ml) and emulsified (1:1) with Complete Freund's Adjuvant (CFA) (gibco; containing 5 mg of killed MT). 200 microliter of emulsion (containing […] of MOG) was injected into the right flank, and each mouse received a supplement of 250 ng of pertussis toxin (List) i.p. Another 250 ng of pertussis toxin (PT) were injected 24 hours later. Mice were observed daily from the 9th day post-EAE and the clinical signs were scored as described in Table III below.
# MWL-001 was dissolved in ethanol (60 mg/ml), wherein in one group MWL-001 was administered ip and in a second group MWL-001 was administered orally by gavage at a dose of 50 mg/kg (10% stock in saline). The MWL-001 was administered once a day (from day 0) at 9 am. Treatment ended on day 15 post inoculation. Each dose was administered in a volume of 0.2 ml/mouse
# A third group of animals was treated ip with a dose of 25 mg/kg starting on day 7 and ending on day 15
# The number of animals in each of the above five groups was between 9 and 11.
# Calculation of the incidence of disease: The number of sick animals in each group was summed and percentage of sick animals in each group calculated.
# Calculation of the mean maximal score (MMS): The maximal scores of each of the 10 mice in the group were summed and the mean maximal score of each group was calculated as follows:Σ maximal score of each mouse / number of mice in the group.
# Calculation of the group mean score (GMS): The scores of each of the 10 mice in the group was summed and the mean score per day calculated. The group mean score was calculated as follows: Σ total score of each mouse per day/number of mice in the group.
# [3] = test system: spinal cord of EAE animal; assay: Histopathology of H&E stained spinal cord sections of EAE animals; type: in vivo, mice
# Source text: FIG. 5 (A, B and C) is a histopathological photograph of a spinal cord section stained with H&E of control untreated EAE animal. P=parenchymal infiltrates, M=meningeal infiltrates and D=diffused infiltrates.
# FIG. 6 (A and B) is a histopathological photograph of a spinal cord section stained with H&E of EAE animal treated with MWL-001 (i.p.) on day 0.
# FIG. 7 (A and B) is a histopathological photograph of a spinal cord section stained with H&E of EAE animal treated with MWL-001 (i.p.) on day 10.
# Histopathological photographs are presented as FIGS. 5, 6 and 7).
# [4] = MW-001 50 mg/kg ip twice a day, treatment started on day 0, monitored day 0 to day 20
# [5] = MW-001 50 mg/kg ip twice a day, treatment started on day 10, monitored day 0 to day 20
# [6] = MWL-001 i.p. treatment started at day 10, FIG. 7 A and B
smiles,measurement,setting,value
CC/C=C/C/C=C/C/C=C/C/C=C/C/C=C/C/C=C/CCC(=O)N1CC(O)CC1C(=O)O (stereo not shown) [MW-001],"Effectiveness in preventing and ameliorating EAE (overall, vs untreated group)","[1]; 50 mg/kg ip twice a day, started on day 0 or day 10",highly effective in preventing and ameliorating EAE in mice
same,Disease incidence (sick mice/total),[1]; [4],**1/10
same,Mean day of onset,[1]; [4],15
same,Mean disease duration,[1]; [4],0.6 ± 0.19 days
same,Mean maximal score,[1]; [4],0.075 ± 0.02
same,Mean score (whole group),[1]; [4],0.2 ± 0.06
same,"Incidence (#dead, including sacrificed)",[1]; [5],11/11
same,Mean day of onset,[1]; [5],11 ± 0.09
same,Mean disease duration,[1]; [5],8.90 ± 0.2 days
same,Mean maximal score,[1]; [5],2.72 ± 0.14
same,Mean score (whole group),[1]; [5],1.34 ± 0.08
same,Severity of disease (clinical score),"[2]; 25 mg/kg ip, day 7 to day 15, 5 in the control group, FIG. 3",3
same,Inhibition of appearance of clinical signs,"[2]; 25 mg/kg ip, day 7 to day 15, FIG. 3",did not inhibit their appearance on day 10-11 post inoculation
same,Inhibition of the clinical signs of the disease,"[2]; 50 mg/kg once a day ip, FIG. 2",effective in inhibiting the clinical signs of the disease
same,Inhibition of the clinical signs of the disease,"[2]; 50 mg/kg once a day orally by gavage, FIG. 2",effective in inhibiting the clinical signs of the disease
same,Clinical signs after cessation of the drug,"[2]; 50 mg/kg once a day orally or ip, a few days after treatment ended on day 15, FIG. 2",mild signs of the disease appeared for a short period of time
same,Mononuclear cell infiltrates in the spinal cord (meningeal),"[3]; MWL-001 i.p. on Day 0, compared to untreated, FIG. 6 A and B",very few meningeal infiltrates
same,Mononuclear cell infiltrates in the spinal cord (meningeal),[3]; [6],very few meningeal infiltrates
same,Parenchymal or diffused infiltrates in the spinal cord,[3]; [6],no parenchymal or diffused infiltrates
